Data published in ChEMBL document CHEMBL4420076, “Amylin and calcitonin receptor agonist” (2017).
Converted amounts (≈) assume the structure as drawn. Numbered stars: 1 amine (or outer) side, 2 acyl side, 3 side chain; on linkers, the order of the positions; unused ones are H or OH. Peptide text beside a SMILES is read from it. * marks the point of attachment. C20 diacid = O=C(O)CCCCCCCCCCCCCCCCCCC(=O)*; γGlu = O=C(O)[C@H](CCC(=O)[*:2])N[*:1]; C14 diacid = O=C(O)CCCCCCCCCCCCC(=O)*; C12 diacid = O=C(O)CCCCCCCCCCC(=O)*; AEEA = NCCOCCOCC(=O)O

Assays:
Calcitonin receptor [1] = target: T1, Calcitonin receptor (Homo sapiens, UniProt P30988); experiment: Agonist activity at human calcitonin receptor expressed in BHK570 cells assessed as increase in intracellular cAMP concentration incubated for 3 hrs in absence of albumin by CRE luciferase reporter gene assay; format: functional, cell-based
T1 sequence (P30988 whole entry): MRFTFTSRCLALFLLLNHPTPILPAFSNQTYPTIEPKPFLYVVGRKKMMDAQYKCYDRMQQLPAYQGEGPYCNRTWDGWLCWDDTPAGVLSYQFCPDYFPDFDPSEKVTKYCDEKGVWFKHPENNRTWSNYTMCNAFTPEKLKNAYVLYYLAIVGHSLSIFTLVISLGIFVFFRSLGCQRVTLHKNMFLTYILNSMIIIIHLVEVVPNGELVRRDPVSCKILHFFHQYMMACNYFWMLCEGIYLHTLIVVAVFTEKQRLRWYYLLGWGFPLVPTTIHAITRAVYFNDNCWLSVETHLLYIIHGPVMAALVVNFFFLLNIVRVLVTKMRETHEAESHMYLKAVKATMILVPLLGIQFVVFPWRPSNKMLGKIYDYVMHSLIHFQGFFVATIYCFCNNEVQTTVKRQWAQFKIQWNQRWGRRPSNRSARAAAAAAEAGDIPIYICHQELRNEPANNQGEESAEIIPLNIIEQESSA

[2] = Solubility in 100 mM bistrispropane buffer at pH 6.5 incubated for 18 hrs by UPLC analysis; format: physicochemical
[3] = target: T2, Amylin receptor AMY3; CALCR/RAMP3 (Homo sapiens, UniProt O60896+P30988); experiment: Agonist activity at human amylin receptor expressed in BHK570 cells co-expressing RAMP3 assessed as increase in intracellular cAMP concentration incubated for 3 hrs in absence of albumin by CRE luciferase reporter gene assay; format: functional, cell-based
T2 sequence (P30988 whole entry): T1 sequence (P30988 whole entry)
T2 sequence (O60896 whole entry): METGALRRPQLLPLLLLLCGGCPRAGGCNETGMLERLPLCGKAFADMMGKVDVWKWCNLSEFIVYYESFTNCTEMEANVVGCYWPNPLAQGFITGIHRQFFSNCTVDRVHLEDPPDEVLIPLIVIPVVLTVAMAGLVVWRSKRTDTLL

[4] = target: T2, Amylin receptor AMY3; CALCR/RAMP3; experiment: Displacement of [125I]-labeled rat amylin from human amylin receptor expressed in BHK tkts13 whole cells co-expressing RAMP3 incubated for 60 mins by scintillation proximity assay; format: cell-based
Rattus norvegicus [5] = experiment: Reduction in food intake in Sprague-Dawley rat at 3 nmol/kg measured 0 to 24 hrs post dose relative to control; format: functional; set-up: scale not given: the % may be the effect or the level left
Rattus norvegicus [6] = experiment: Reduction in food intake in Sprague-Dawley rat at 3 nmol/kg measured 24 to 48 hrs post dose relative to control; format: functional; set-up: scale not given: the % may be the effect or the level left
[7] = Solubility in 100 mM glycylglycine buffer at pH 3.0 incubated for 18 hrs by UPLC analysis; format: physicochemical
[8] = Solubility in 100 mM bistrispropane buffer at pH 8.0 incubated for 18 hrs by UPLC analysis; format: physicochemical
[9] = Solubility in 100 mM bistrispropane buffer at pH 7.0 incubated for 18 hrs by UPLC analysis; format: physicochemical
[10] = Solubility in 100 mM glycylglycine buffer at pH 4.0 incubated for 18 hrs by UPLC analysis; format: physicochemical
[11] = Solubility in 100 mM glycylglycine buffer at pH 5.0 incubated for 18 hrs by UPLC analysis; format: physicochemical
[12] = Solubility in 100 mM bistrispropane buffer at pH 6.0 incubated for 18 hrs by UPLC analysis; format: physicochemical
[13] = Solubility in 100 mM bistrispropane buffer at pH 7.5 incubated for 18 hrs by UPLC analysis; format: physicochemical
Calcitonin receptor [14] = target: T1, Calcitonin receptor; experiment: Agonist activity at human calcitonin receptor expressed in BHK570 cells assessed as increase in intracellular cAMP concentration incubated for 3 hrs in presence of 10% FBS by CRE luciferase reporter gene assay; format: functional, cell-based

| Structure (SMILES) | EC50 (Calcitonin receptor [1]) [nM] | solubility at 18 h [2] [µM] | EC50 [3] [nM] | IC50 [4] [nM] | Activity (Rattus norvegicus [5]) [%] | Activity (Rattus norvegicus [6]) [%] | solubility at 18 h [7] [µM] | solubility at 18 h [8] [µM] | solubility at 18 h [9] [µM] | solubility at 18 h [10] [µM] | solubility at 18 h [11] [µM] | solubility at 18 h [12] [µM] | solubility at 18 h [13] [µM] | EC50 (Calcitonin receptor [14]) [nM] |
| --- | --- | --- | --- | --- | --- | --- | --- | --- | --- | --- | --- | --- | --- | --- |
| CC(C)C[C@H](NC(=O)[C@H](C)NC(=O)[C@H](C)NC(=O)[C@@H](NC(=O)[C@H](CO)NC(=O)[C@H](CC(C)C)NC(=O)[C@H](CCC(=O)O)NC(=O)[C@H](CO)NC(=O)[C@H](C)NC(=O)[C@H](CCC(=O)O)NC(=O)CCCCCCCCCCC(=O)O)[C@@H](C)O)C(=O)NCC(=O)N[C@@H](CCCNC(=N)N)C(=O)N[C@@H](CC(C)C)C(=O)N[C@@H](CO)C(=O)N[C@@H](C)C(=O)N[C@@H](CCC(=O)O)C(=O)N[C@@H](CC(C)C)C(=O)N[C@@H](Cc1cnc[nH]1)C(=O)N[C@@H](CCC(=O)O)C(=O)N[C@@H](CC(C)C)C(=O)N[C@@H](C)C(=O)N[C@H](C(=O)N[C@@H](CC(C)C)C(=O)N1CCC[C@H]1C(=O)N[C@@H](CCCNC(=N)N)C(=O)N[C@H](C(=O)N[C@@H](CCC(=O)O)C(=O)N[C@H](C(=O)NCC(=O)N1CCC[C@H]1C(=O)N[C@@H](CCC(=O)O)C(=O)N[C@@H](CO)C(=O)N1CCC[C@H]1C(N)=O)[C@@H](C)O)[C@@H](C)O)[C@@H](C)O ({C12 diacid}-EASELSTAALGRLSAELHELATLPRTETGPESP-NH2) | 0.008 | 5 (≈ 18.2 µg/mL) | 0.023 | 8.97 | 2 | -12 |  |  |  |  |  |  |  |  |
| CC(C)C[C@H](NC(=O)[C@H](C)NC(=O)[C@H](C)NC(=O)[C@@H](NC(=O)[C@H](CO)NC(=O)[C@H](CC(C)C)NC(=O)[C@H](CCC(=O)O)NC(=O)[C@H](CO)NC(=O)[C@H](C)NC(=O)[C@H](CCC(=O)O)NC(=O)COCCOCCNC(=O)COCCOCCNC(=O)COCCOCCNC(=O)COCCOCCNC(=O)CC[C@H](NC(=O)CC[C@H](NC(=O)CCCCCCCCCCCCC(=O)O)C(=O)O)C(=O)O)[C@@H](C)O)C(=O)NCC(=O)N[C@@H](CCCNC(=N)N)C(=O)N[C@@H](CC(C)C)C(=O)N[C@@H](CO)C(=O)N[C@@H](C)C(=O)N[C@@H](CCC(=O)O)C(=O)N[C@@H](CC(C)C)C(=O)N[C@@H](Cc1cnc[nH]1)C(=O)N[C@@H](CCC(=O)O)C(=O)N[C@@H](CC(C)C)C(=O)N[C@@H](C)C(=O)N[C@H](C(=O)N[C@@H](CC(C)C)C(=O)N1CCC[C@H]1C(=O)N[C@@H](CCCNC(=N)N)C(=O)N[C@H](C(=O)N[C@@H](CCC(=O)O)C(=O)N[C@H](C(=O)NCC(=O)N1CCC[C@H]1C(=O)N[C@@H](CCC(=O)O)C(=O)N[C@@H](CO)C(=O)N1CCC[C@H]1C(N)=O)[C@@H](C)O)[C@@H](C)O)[C@@H](C)O ({C14 diacid-γGlu-γGlu-AEEA-AEEA-AEEA-AEEA}-EASELSTAALGRLSAELHELATLPRTETGPESP-NH2) | 0.007 | ≥ 200 | 0.027 | 8.38 | 3 | -3 | ≥ 200 | ≥ 200 | ≥ 200 | ≥ 200 | ≥ 200 | ≥ 200 | ≥ 200 |  |
| CC(C)C[C@H](NC(=O)[C@H](C)NC(=O)[C@H](C)NC(=O)[C@@H](NC(=O)[C@H](CO)NC(=O)[C@H](CC(C)C)NC(=O)[C@H](CCC(=O)O)NC(=O)[C@H](CO)NC(=O)[C@H](C)NC(=O)[C@H](CCC(=O)O)NC(=O)CCCCCCCCCCCCC(=O)O)[C@@H](C)O)C(=O)NCC(=O)N[C@@H](CCCNC(=N)N)C(=O)N[C@@H](CC(C)C)C(=O)N[C@@H](CO)C(=O)N[C@@H](C)C(=O)N[C@@H](CCC(=O)O)C(=O)N[C@@H](CC(C)C)C(=O)N[C@@H](Cc1cnc[nH]1)C(=O)N[C@@H](CCC(=O)O)C(=O)N[C@@H](CC(C)C)C(=O)N[C@@H](C)C(=O)N[C@H](C(=O)N[C@@H](CC(C)C)C(=O)N1CCC[C@H]1C(=O)N[C@@H](CCCNC(=N)N)C(=O)N[C@H](C(=O)N[C@@H](CCC(=O)O)C(=O)N[C@H](C(=O)NCC(=O)N1CCC[C@H]1C(=O)N[C@@H](CCC(=O)O)C(=O)N[C@@H](CO)C(=O)N1CCC[C@H]1C(N)=O)[C@@H](C)O)[C@@H](C)O)[C@@H](C)O ({C14 diacid}-EASELSTAALGRLSAELHELATLPRTETGPESP-NH2) | 0.002 | ≥ 200 | 0.006 | 1.19 | 13.5 | -4 | ≥ 200 | ≥ 200 | ≥ 200 | ≥ 200 | ≥ 200 | ≥ 200 | ≥ 200 |  |
| CC(C)C[C@H](NC(=O)[C@H](C)NC(=O)[C@H](C)NC(=O)[C@@H](NC(=O)[C@H](CO)NC(=O)[C@H](CC(C)C)NC(=O)[C@H](CCC(=O)O)NC(=O)[C@H](CO)NC(=O)[C@H](C)NC(=O)CC[C@H](NC(=O)CCCCCCCCCCCCCCCCCCC(=O)O)C(=O)O)[C@@H](C)O)C(=O)NCC(=O)N[C@@H](Cc1cnc[nH]1)C(=O)N[C@@H](CC(C)C)C(=O)N[C@@H](CO)C(=O)N[C@@H](C)C(=O)N[C@@H](CCC(=O)O)C(=O)N[C@@H](CC(C)C)C(=O)N[C@@H](Cc1cnc[nH]1)C(=O)N[C@@H](CCC(=O)O)C(=O)N[C@@H](CC(C)C)C(=O)N[C@@H](C)C(=O)N[C@H](C(=O)N[C@@H](CC(C)C)C(=O)N1CCC[C@H]1C(=O)N[C@@H](Cc1cnc[nH]1)C(=O)N[C@H](C(=O)N[C@@H](CCC(=O)O)C(=O)N[C@H](C(=O)NCC(=O)N[C@@H](CO)C(=O)NCC(=O)N[C@@H](CO)C(=O)N1CCC[C@H]1C(N)=O)[C@@H](C)O)[C@@H](C)O)[C@@H](C)O ({C20 diacid-γGlu}-ASELSTAALGHLSAELHELATLPHTETGSGSP-NH2) | 0.012 | ≥ 200 | 0.026 |  | 7 | 3 | ≥ 200 | ≥ 200 | ≥ 200 | ≥ 200 | ≥ 200 | ≥ 200 | ≥ 200 | 0.123 |
| CC(C)C[C@H](NC(=O)CNC(=O)[C@H](CO)NC(=O)[C@H](C)NC(=O)[C@H](CCC(=O)O)NC(=O)CC[C@H](NC(=O)CCCCCCCCCCCCCCCCCCC(=O)O)C(=O)O)C(=O)N[C@@H](CO)C(=O)N[C@H](C(=O)N[C@@H](C)C(=O)N[C@@H](C)C(=O)N[C@@H](CC(C)C)C(=O)NCC(=O)N[C@@H](CCCNC(=N)N)C(=O)N[C@@H](CC(C)C)C(=O)N[C@@H](CO)C(=O)N[C@@H](CCC(N)=O)C(=O)N[C@@H](CCC(=O)O)C(=O)N[C@@H](CC(C)C)C(=O)N[C@@H](Cc1cnc[nH]1)C(=O)N[C@@H](CCC(=O)O)C(=O)N[C@@H](CC(C)C)C(=O)N[C@@H](CCC(N)=O)C(=O)N[C@H](C(=O)N[C@@H](Cc1ccc(O)cc1)C(=O)N1CCC[C@H]1C(=O)N[C@@H](CCCNC(=N)N)C(=O)N[C@H](C(=O)N[C@@H](CCC(=O)O)C(=O)N[C@H](C(=O)NCC(=O)N[C@@H](CO)C(=O)NCC(=O)N[C@H](C(=O)N[C@@H](Cc1ccc(O)cc1)C(N)=O)[C@@H](C)O)[C@@H](C)O)[C@@H](C)O)[C@@H](C)O)[C@@H](C)O ({C20 diacid-γGlu}-EASGLSTAALGRLSQELHELQTYPRTETGSGTY-NH2) | 0.023 | ≥ 200 |  |  | 23 | 10 | ≥ 200 | ≥ 200 | ≥ 200 | ≥ 200 |  | ≥ 200 | ≥ 200 | 0.092 |
